Data as given in ChEMBL document CHEMBL1158699, “Bioactive benzophenones from Garcinia xanthochymus fruits” (J Nat Prod, 2005).
Activity calls are given as the source filed them. No cut-off for these calls is given here.

How the values were obtained:
[1] = system: SW480; assay: Cytotoxicity against human SW480 cells after 72 hrs by MTT assay; format: functional, cell-based; conditions: SW480, 72 h
[2] = system: Radical scavenging activity; assay: Antioxidant activity assessed as DPPH radical scavenging activity; format: functional

Row | IC50 [2] | Structure (SMILES) | IC50 [1] | Activity [2]
1 | 116 µM | O=C1c2c(O)cc(O)cc2OC(c2ccc(O)cc2)C1c1c(O[C@@H]2O[C@H](CO)[C@@H](O)[C@H](O)[C@H]2O)cc(O)c2c(=O)cc(-c3ccc(O)c(O)c3)oc12 (mixture of isomers) | > 200 µM | –
2 | – | COc1cc2c(=O)c3c(O)cc(O)cc3oc2cc1O [ALLOATHYRIOL] | 117 µM | inactive
3 | > 400 µM | O=c1c(-c2c(O)cc(O)c3c(=O)cc(-c4ccc(O)cc4)oc23)c(-c2ccc(O)cc2)oc2cc(O)cc(O)c12 | 185 µM | –
4 | 62 µM | O=C1c2c(O)cc(O)cc2OC(c2ccc(O)cc2)C1c1c(O)cc(O)c2c(=O)cc(-c3ccc(O)c(O)c3)oc12 (racemic) | 89 µM | –
5 | 184 µM | O=c1cc(-c2ccc(O)c(-c3c(O)cc(O)c4c(=O)cc(-c5ccc(O)cc5)oc34)c2)oc2cc(O)cc(O)c12 [AMENTOFLAVONE] | 111 µM | –
